# Assay results from US6063587A, “Water-soluble tetrazolium salt compounds” (Dojindo Laboratories Co., Ltd., priority 1996, dated 2000).
# Columns and labels:
# [1] = background statement; cited from earlier work
# [2] = Storage stability test (absorbance of aqueous buffer solution at 460 nm); type: physicochemical; details: 1 mM in 50 mM Tris buffer (pH 8.0), stored at 4° C. for 0, 1, 7, 14, 31 and 90 days
# Procedure: 50 mM Tris buffer (pH 8.0) containing 1 mM of Compound a was stored at 4° C. for 0, 1, 7, 14, 31 and 90 days, and absorbances at 460 nm were measured. At the same time, the compound of the above general formula (2) described in Japanese Patent Unexamined Publication No.(Hei) 7-70092/1995 wherein both R^1 and R^2 are nitro groups (Compound b: see, the section of "Background Art") was stored in the same manner, and changes of absorbance were measured.
Structure (SMILES),water solubility of formazan compound [1],changes of absorbance at 460 nm on storage [2]
"COc1cc(-c2ccc(-n3nc(-c4ccccc4)n[n+]3-c3ccc([N+](=O)[O-])cc3)c(OC)c2)ccc1-n1nc(-c2ccccc2)n[n+]1-c1ccc([N+](=O)[O-])cc1 [nitro-TB, 3,3'-[3,3'-dimethoxy-(1,1'-biphenyl)-4,4'-diyl]-bis[2-(4-nitrophenyl)-5-phenyl]-2H-tetrazolium chloride]",low water solubility,
O=[N+]([O-])c1ccc(-n2nc(-c3ccc(S(=O)(=O)O)cc3S(=O)(=O)[O-])n[n+]2-c2ccc(I)cc2)c([N+](=O)[O-])c1 [Compound b],,remarkable increases of absorbance
